System: vasopressor response of angiotensin II
Test: AII Challenge: antagonism of angiotensin II vasopressor response;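 for Response Average Change: post-dose Angiotensin II-evoked rise in systolic blood pressure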
Assay type: in vivo
Settings: for inhibition in vivo at 3 mg/kg / inhibition in vivo at 5 mg/kg: Rattus norvegicus; for inhibition in vivo at 3 mg/kg: iv; for inhibition in vivo at 5 mg/kg: po
Procedure, shortened: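 Conscious male SHR (16-20 weeks) with aortic and caval cannulae received angiotensin II at 0.05 and 0.1 ug/kg i.v. before and 30-300 min after compound dosing (i.v., i.p. or oral). Blockade is expressed as % of each rat's predose rise in systolic pressure.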

CCCCc1nc2ccc(C3(C)CC4c5ccccc5CCN4O3)cc2c(=O)n1Cc1ccc(-c2ccccc2-c2nnn[nH]2)cc1 (stereo not drawn) [Example 64, Cis and Trans-2-Butyl-6-(1,5,6,10b-tetrahydro-2-methyl-2H-isoxazolo[3,2-a]isoquinolin-2-yl)-3-[[2'-(1H-tetrazol-5-yl][1,1'-biphenyl]-4-yl]methyl]-4(3H)-quinazolinone] was tested, and the “Response Average Change” value (3 mg/kg I.V., AII 0.05 mcg/kg IV, 30 min post dose) was 2.5 mmHg, the “Response Average Change” value (3 mg/kg I.V., AII 0.05 mcg/kg IV, 60 min post dose) was 2.5 mmHg and the “Response Average Change” value (3 mg/kg I.V., AII 0.05 mcg/kg IV, 90 min post dose) was 7.5 mmHg. For the same molecule, the “Response Average Change” value (3 mg/kg I.V., AII 0.05 mcg/kg IV, 180 min post dose) was 7.5 mmHg, the “Response Average Change” value (3 mg/kg I.V., AII 0.05 mcg/kg IV, 240 min post dose) was 18 mmHg and the “Response Average Change” value (3 mg/kg I.V., AII 0.05 mcg/kg IV, 300 min post dose) was 7.5 mmHg. For the same molecule, the “Response Average Change” value (3 mg/kg I.V., AII 0.1 mcg/kg IV, 30 min post dose) was 5 mmHg, the “Response Average Change” value (3 mg/kg I.V., AII 0.1 mcg/kg IV, 60 min post dose) was 5 mmHg and the “Response Average Change” value (3 mg/kg I.V., AII 0.1 mcg/kg IV, 90 min post dose) was 7.5 mmHg. For the same molecule, the “Response Average Change” value (3 mg/kg I.V., AII 0.1 mcg/kg IV, 120 min post dose) was 10 mmHg, the “Response Average Change” value (3 mg/kg I.V., AII 0.1 mcg/kg IV, 180 min post dose) was 11 mmHg and the “Response Average Change” value (3 mg/kg I.V., AII 0.1 mcg/kg IV, 240 min post dose) was 12.5 mmHg. For the same molecule, the “Response Average Change” value (3 mg/kg I.V., AII 0.1 mcg/kg IV, 300 min post dose) was 18.5 mmHg, the “Response Average Change” value (3 mg/kg I.V., AII 0.5 mcg/kg IV, 120 min post dose) was 5 mmHg and the “Response Average Change” value (5 mg/kg P.O., AII 0.05 mcg/kg IV, 30 min post dose) was 15 mmHg. For the same molecule, the “Response Average Change” value (5 mg/kg P.O., AII 0.05 mcg/kg IV, 60 min post dose) was 18.5 mmHg, the “Response Average Change” value (5 mg/kg P.O., AII 0.05 mcg/kg IV, 120 min post dose) was 20 mmHg and the “Response Average Change” value (5 mg/kg P.O., AII 0.05 mcg/kg IV, 180 min post dose) was 17.5 mmHg. For the same molecule, the “Response Average Change” value (5 mg/kg P.O., AII 0.1 mcg/kg IV, 30 min post dose) was 27.5 mmHg, the “Response Average Change” value (5 mg/kg P.O., AII 0.1 mcg/kg IV, 60 min post dose) was 23.5 mmHg and the “Response Average Change” value (5 mg/kg P.O., AII 0.1 mcg/kg IV, 90 min post dose) was 22 mmHg. The “Response Average Change” value (5 mg/kg P.O., AII 0.1 mcg/kg IV, 120 min post dose) was 20 mmHg, the “Response Average Change” value (5 mg/kg P.O., AII 0.1 mcg/kg IV, 180 min post dose) was 24 mmHg and the “Response Average Change” value (5 mg/kg P.O., AII 0.5 mcg/kg IV, 90 min post dose) was 20 mmHg. It also gave an inhibition in vivo at 3 mg/kg (0.5 h, 3 mg/kg I.V., AII 0.05 mcg/kg IV, 30 min post dose) of 93%, an inhibition in vivo at 3 mg/kg (0.5 h, 3 mg/kg I.V., AII 0.1 mcg/kg IV, 30 min post dose) of 91% and an inhibition in vivo at 3 mg/kg (1 h, 3 mg/kg I.V., AII 0.05 mcg/kg IV, 60 min post dose) of 93%. It also gave an inhibition in vivo at 3 mg/kg (1 h, 3 mg/kg I.V., AII 0.1 mcg/kg IV, 60 min post dose) of 91%, an inhibition in vivo at 3 mg/kg (2 h, 3 mg/kg I.V., AII 0.1 mcg/kg IV, 120 min post dose) of 81% and an inhibition in vivo at 3 mg/kg (2 h, 3 mg/kg I.V., AII 0.5 mcg/kg IV, 120 min post dose) of 86%. The inhibition in vivo at 3 mg/kg (3 h, 3 mg/kg I.V., AII 0.05 mcg/kg IV, 180 min post dose) was 79%, the inhibition in vivo at 3 mg/kg (3 h, 3 mg/kg I.V., AII 0.1 mcg/kg IV, 180 min post dose) was 80% and the inhibition in vivo at 3 mg/kg (4 h, 3 mg/kg I.V., AII 0.05 mcg/kg IV, 240 min post dose) was 51%. For the same molecule, the inhibition in vivo at 3 mg/kg (4 h, 3 mg/kg I.V., AII 0.1 mcg/kg IV, 240 min post dose) was 77%, the inhibition in vivo at 3 mg/kg (5 h, 3 mg/kg I.V., AII 0.05 mcg/kg IV, 300 min post dose) was 79% and the inhibition in vivo at 3 mg/kg (5 h, 3 mg/kg I.V., AII 0.1 mcg/kg IV, 300 min post dose) was 66%. For the same molecule, the inhibition in vivo at 3 mg/kg ([…], 3 mg/kg I.V., AII 0.05 mcg/kg IV, 90 min post dose) was 79%, the inhibition in vivo at 3 mg/kg ([…], 3 mg/kg I.V., AII 0.1 mcg/kg IV, 90 min post dose) was 86% and the inhibition in vivo at 5 mg/kg (0.5 h, 5 mg/kg P.O., AII 0.05 mcg/kg IV, 30 min post dose) was 54%. For the same molecule, the inhibition in vivo at 5 mg/kg (0.5 h, 5 mg/kg P.O., AII 0.1 mcg/kg IV, 30 min post dose) was 25%, the inhibition in vivo at 5 mg/kg (1 h, 5 mg/kg P.O., AII 0.05 mcg/kg IV, 60 min post dose) was 43% and the inhibition in vivo at 5 mg/kg (1 h, 5 mg/kg P.O., AII 0.1 mcg/kg IV, 60 min post dose) was 36%. The inhibition in vivo at 5 mg/kg (2 h, 5 mg/kg P.O., AII 0.05 mcg/kg IV, 120 min post dose) was 38%, the inhibition in vivo at 5 mg/kg (2 h, 5 mg/kg P.O., AII 0.1 mcg/kg IV, 120 min post dose) was 45% and the inhibition in vivo at 5 mg/kg (3 h, 5 mg/kg P.O., AII 0.05 mcg/kg IV, 180 min post dose) was 46%. For the same molecule, the inhibition in vivo at 5 mg/kg (3 h, 5 mg/kg P.O., AII 0.1 mcg/kg IV, 180 min post dose) was 34%, the inhibition in vivo at 5 mg/kg ([…], 5 mg/kg P.O., AII 0.1 mcg/kg IV, 90 min post dose) was 40% and the inhibition in vivo at 5 mg/kg ([…], 5 mg/kg P.O., AII 0.5 mcg/kg IV, 90 min post dose) was 38%.
